Assay results: patent publication US10231954B2, “Neurodegenerative therapies” (LYTIX BIOPHARMA AS, priority 2014, dated 2019)

Legend:
Type in all cases: biochemical
[1] = molecular target: MARK3 (Homo sapiens, UniProt P27448); experiment: Kinase profiling MARK3; conditions: 100 micromolar inhibitor concentration; 100 is no change; read-out: residual kinase activity, MARK3
Excerpt: (§1) Any value less that 25 is considered to be highly significant inhibition.

[2] = molecular target: BTK (Homo sapiens, UniProt Q06187); experiment: Kinase profiling BTK; conditions: 100 micromolar inhibitor concentration; 100 is no change; read-out: residual kinase activity, BTK
Excerpt: as §1

[3] = molecular target: Lck (Homo sapiens, UniProt P06239); experiment: Kinase profiling Lck; conditions: 100 micromolar inhibitor concentration; 100 is no change; read-out: residual kinase activity, Lck
Excerpt: as §1

[4] = molecular target: IGF-1R (Homo sapiens, UniProt P08069); experiment: Kinase profiling IGF-1R; conditions: 100 micromolar inhibitor concentration; 100 is no change; read-out: residual kinase activity, IGF-1R
Excerpt: as §1

[5] = molecular target: T1, PKCz (Homo sapiens, UniProt Q05513); experiment: Kinase profiling PKCz; conditions: 100 micromolar inhibitor concentration; 100 is no change; read-out: residual kinase activity, PKCz
T1 sequence (Q05513 1-592): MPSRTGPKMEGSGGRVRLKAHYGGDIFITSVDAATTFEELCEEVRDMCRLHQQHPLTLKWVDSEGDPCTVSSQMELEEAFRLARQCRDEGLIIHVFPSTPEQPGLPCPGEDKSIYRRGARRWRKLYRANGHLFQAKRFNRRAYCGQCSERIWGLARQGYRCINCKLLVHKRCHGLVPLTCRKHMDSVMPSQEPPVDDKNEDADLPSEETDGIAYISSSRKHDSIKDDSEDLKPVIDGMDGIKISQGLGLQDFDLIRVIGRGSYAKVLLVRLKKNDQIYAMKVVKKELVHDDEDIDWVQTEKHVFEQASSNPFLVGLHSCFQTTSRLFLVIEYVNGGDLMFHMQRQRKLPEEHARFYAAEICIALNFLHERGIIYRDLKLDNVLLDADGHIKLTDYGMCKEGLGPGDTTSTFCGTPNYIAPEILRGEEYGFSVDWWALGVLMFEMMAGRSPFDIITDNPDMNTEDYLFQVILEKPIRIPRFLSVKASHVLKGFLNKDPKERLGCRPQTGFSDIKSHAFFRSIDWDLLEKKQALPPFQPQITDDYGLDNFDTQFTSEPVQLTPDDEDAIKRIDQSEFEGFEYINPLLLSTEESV
Excerpt: as §1

[6] = molecular target: ERK1 (Homo sapiens, UniProt P27361); experiment: Kinase profiling ERK1; conditions: 100 micromolar inhibitor concentration; 100 is no change; read-out: residual kinase activity, ERK1
ERK1, sequence (P27361 whole entry, species assumed): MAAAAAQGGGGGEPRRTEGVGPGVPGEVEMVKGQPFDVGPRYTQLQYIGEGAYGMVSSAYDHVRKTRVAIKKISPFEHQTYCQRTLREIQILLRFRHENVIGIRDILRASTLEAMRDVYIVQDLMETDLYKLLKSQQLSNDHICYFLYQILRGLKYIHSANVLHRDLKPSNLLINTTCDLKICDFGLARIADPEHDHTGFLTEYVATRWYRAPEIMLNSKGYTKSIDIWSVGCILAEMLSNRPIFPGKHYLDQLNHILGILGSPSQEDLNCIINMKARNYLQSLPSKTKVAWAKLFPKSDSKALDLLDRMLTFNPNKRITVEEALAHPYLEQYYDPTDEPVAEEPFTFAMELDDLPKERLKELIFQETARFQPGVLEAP
Excerpt: as §1

[7] = molecular target: PKBb (Homo sapiens, UniProt P31751); experiment: Kinase profiling PKBb; conditions: read-out: residual kinase activity, PKBb
PKBb, sequence (P31751 whole entry): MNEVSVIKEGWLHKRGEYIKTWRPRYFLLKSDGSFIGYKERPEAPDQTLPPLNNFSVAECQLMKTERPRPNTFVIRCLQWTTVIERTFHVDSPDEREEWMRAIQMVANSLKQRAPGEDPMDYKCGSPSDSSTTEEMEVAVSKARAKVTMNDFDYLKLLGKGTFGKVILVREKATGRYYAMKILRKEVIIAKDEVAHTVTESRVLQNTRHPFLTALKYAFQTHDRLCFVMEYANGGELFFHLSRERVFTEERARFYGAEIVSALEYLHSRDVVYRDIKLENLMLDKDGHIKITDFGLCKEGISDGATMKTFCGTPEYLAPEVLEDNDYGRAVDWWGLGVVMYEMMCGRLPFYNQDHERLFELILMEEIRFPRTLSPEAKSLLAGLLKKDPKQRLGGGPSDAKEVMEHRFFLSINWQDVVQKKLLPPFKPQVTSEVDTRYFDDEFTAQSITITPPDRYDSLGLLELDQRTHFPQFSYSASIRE
Excerpt: as §1

[8] = molecular target: PRK2 (Homo sapiens, UniProt Q16513); experiment: Kinase profiling PRK2; conditions: 100 micromolar inhibitor concentration; 100 is no change; read-out: residual kinase activity, PRK2
Excerpt: as §1

[9] = molecular target: T2, p38d MAPK (Homo sapiens, UniProt O15264); experiment: Kinase profiling p38d MAPK; conditions: 100 micromolar inhibitor concentration; 100 is no change; read-out: residual kinase activity, p38d MAPK
T2 sequence (O15264 1-365): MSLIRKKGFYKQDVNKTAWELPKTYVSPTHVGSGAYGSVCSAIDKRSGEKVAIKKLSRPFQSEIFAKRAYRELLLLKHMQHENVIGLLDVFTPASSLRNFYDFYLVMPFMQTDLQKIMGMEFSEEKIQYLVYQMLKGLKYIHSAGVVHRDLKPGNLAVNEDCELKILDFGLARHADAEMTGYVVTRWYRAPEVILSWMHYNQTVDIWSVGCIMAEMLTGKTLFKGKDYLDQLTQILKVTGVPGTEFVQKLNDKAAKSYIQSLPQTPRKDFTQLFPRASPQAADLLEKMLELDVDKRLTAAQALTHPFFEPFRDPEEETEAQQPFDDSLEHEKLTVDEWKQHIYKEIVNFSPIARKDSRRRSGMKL
Excerpt: as §1

[10] = molecular target: MKK2 (Homo sapiens, UniProt P36507); experiment: Kinase profiling MKK2; conditions: 100 micromolar inhibitor concentration; 100 is no change; read-out: residual kinase activity, MKK2
Excerpt: as §1

[11] = molecular target: T3, MKK6 (Homo sapiens, UniProt P52564); experiment: Kinase profiling MKK6; conditions: 100 micromolar inhibitor concentration; 100 is no change; read-out: residual kinase activity, MKK6
T3 sequence (P52564 1-334): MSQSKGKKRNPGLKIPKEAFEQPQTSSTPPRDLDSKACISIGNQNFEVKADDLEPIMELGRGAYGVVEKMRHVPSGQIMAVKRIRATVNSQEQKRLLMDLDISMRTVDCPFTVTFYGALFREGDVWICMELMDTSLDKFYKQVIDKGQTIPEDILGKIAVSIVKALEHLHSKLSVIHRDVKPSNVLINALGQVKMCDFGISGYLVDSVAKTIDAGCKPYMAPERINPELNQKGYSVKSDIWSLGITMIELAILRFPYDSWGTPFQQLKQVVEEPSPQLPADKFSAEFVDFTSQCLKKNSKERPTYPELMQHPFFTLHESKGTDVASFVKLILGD
Excerpt: as §1

[12] = molecular target: T4, SGK1 (Homo sapiens, UniProt O00141); experiment: Kinase profiling SGK1; conditions: 100 micromolar inhibitor concentration; 100 is no change; read-out: residual kinase activity, SGK1
T4 sequence (O00141 1-431): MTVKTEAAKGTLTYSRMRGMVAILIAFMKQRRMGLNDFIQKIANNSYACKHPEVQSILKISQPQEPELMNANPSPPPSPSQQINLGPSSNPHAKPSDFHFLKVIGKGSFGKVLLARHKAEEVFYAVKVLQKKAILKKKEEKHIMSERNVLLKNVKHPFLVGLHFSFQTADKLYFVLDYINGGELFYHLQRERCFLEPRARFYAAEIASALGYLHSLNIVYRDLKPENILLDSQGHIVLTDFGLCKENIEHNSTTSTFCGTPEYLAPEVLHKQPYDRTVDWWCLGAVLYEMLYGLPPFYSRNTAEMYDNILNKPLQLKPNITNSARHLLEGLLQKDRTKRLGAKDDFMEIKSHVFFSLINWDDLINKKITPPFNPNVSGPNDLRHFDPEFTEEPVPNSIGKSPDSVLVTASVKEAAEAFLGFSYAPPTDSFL
Excerpt: as §1

[13] = molecular target: JNK2 (Homo sapiens, UniProt P45984); experiment: Kinase profiling JNK2; conditions: 100 micromolar inhibitor concentration; 100 is no change; read-out: residual kinase activity, JNK2
JNK2, sequence (P45984 whole entry, species assumed): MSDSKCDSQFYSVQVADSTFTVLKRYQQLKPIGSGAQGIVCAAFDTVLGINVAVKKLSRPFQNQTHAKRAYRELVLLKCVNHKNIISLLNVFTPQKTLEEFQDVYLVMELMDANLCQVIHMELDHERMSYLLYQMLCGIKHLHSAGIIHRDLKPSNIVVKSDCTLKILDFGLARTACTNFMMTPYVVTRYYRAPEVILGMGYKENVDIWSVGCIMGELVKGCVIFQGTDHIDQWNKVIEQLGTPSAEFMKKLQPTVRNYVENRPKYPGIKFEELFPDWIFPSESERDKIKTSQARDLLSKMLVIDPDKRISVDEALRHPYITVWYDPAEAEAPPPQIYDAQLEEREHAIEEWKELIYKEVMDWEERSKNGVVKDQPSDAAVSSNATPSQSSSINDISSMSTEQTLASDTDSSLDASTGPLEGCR
Excerpt: as §1

[14] = molecular target: MLK3 (Homo sapiens, UniProt Q16584); experiment: Kinase profiling MLK3; conditions: 100 micromolar inhibitor concentration; 100 is no change; read-out: residual kinase activity, MLK3
MLK3, sequence (Q16584 whole entry, species assumed): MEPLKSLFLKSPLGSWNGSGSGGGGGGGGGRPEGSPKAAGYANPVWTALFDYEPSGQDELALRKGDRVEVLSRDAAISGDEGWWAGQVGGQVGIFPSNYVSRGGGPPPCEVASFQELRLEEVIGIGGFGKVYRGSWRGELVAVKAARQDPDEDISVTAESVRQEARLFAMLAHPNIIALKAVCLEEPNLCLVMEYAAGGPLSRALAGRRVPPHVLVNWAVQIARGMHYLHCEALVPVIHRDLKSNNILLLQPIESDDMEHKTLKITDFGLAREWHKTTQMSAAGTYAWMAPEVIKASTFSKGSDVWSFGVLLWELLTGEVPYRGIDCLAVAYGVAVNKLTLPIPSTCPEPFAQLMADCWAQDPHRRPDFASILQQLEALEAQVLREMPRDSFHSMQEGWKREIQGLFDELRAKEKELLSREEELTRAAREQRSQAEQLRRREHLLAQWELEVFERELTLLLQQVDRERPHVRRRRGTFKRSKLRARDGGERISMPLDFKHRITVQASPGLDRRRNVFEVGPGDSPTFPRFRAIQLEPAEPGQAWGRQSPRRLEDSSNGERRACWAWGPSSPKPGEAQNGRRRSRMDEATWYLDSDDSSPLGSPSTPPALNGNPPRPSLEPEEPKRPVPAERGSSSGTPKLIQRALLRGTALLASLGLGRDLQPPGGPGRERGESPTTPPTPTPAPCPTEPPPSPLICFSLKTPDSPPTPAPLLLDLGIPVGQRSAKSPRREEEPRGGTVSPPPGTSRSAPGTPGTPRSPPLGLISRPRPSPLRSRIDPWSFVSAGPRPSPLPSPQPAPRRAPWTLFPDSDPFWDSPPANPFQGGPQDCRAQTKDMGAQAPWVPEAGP
Excerpt: as §1

[15] = system: VEG-FR; experiment: Kinase profiling VEG-FR; conditions: 100 micromolar inhibitor concentration; 100 is no change
Excerpt: as §1

[16] = molecular target: JNK3 (Homo sapiens, UniProt P53779); experiment: Kinase profiling JNK3; conditions: 100 micromolar inhibitor concentration; 100 is no change; read-out: residual kinase activity, JNK3
Excerpt: as §1

[17] = molecular target: HIPK2 (Homo sapiens, UniProt Q9H2X6); experiment: Kinase profiling HIPK2; conditions: 100 micromolar inhibitor concentration; 100 is no change; read-out: residual kinase activity, HIPK2
HIPK2, sequence (Q9H2X6 whole entry, species assumed): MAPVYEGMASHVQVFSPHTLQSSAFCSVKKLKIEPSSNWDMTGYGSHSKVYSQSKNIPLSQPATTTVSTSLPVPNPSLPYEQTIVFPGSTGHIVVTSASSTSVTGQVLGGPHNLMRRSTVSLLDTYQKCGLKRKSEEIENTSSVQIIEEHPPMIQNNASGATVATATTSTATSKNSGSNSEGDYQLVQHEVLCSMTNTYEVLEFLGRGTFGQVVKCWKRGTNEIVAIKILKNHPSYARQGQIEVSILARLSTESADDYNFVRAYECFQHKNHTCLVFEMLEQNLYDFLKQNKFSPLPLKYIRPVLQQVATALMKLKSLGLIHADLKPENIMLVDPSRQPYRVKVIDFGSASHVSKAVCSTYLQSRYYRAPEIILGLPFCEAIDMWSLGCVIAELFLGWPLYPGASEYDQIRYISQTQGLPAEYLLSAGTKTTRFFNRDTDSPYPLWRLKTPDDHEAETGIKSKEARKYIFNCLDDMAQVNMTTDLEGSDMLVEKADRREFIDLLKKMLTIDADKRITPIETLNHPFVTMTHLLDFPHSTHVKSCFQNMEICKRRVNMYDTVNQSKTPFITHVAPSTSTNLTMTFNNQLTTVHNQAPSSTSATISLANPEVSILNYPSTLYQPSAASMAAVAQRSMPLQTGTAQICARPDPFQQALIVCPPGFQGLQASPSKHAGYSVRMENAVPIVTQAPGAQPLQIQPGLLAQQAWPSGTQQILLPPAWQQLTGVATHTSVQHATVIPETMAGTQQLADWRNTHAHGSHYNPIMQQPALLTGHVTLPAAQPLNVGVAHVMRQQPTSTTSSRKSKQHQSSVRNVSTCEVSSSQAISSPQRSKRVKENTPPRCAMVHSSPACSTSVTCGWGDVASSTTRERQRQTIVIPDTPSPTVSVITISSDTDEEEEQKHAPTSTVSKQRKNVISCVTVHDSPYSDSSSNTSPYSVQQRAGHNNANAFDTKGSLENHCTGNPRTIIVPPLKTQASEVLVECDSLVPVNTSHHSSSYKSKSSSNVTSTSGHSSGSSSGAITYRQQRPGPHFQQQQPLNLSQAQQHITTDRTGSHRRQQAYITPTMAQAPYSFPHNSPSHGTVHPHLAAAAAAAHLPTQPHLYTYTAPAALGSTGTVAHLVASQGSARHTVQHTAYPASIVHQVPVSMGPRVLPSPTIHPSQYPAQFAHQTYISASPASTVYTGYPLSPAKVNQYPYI
Excerpt: as §1

[18] = molecular target: SmMLCK (Homo sapiens, UniProt Q15746); experiment: Kinase profiling SmMLCK; conditions: 100 micromolar inhibitor concentration; 100 is no change; read-out: residual kinase activity, SmMLCK
SmMLCK, sequence (Q15746 923-1914): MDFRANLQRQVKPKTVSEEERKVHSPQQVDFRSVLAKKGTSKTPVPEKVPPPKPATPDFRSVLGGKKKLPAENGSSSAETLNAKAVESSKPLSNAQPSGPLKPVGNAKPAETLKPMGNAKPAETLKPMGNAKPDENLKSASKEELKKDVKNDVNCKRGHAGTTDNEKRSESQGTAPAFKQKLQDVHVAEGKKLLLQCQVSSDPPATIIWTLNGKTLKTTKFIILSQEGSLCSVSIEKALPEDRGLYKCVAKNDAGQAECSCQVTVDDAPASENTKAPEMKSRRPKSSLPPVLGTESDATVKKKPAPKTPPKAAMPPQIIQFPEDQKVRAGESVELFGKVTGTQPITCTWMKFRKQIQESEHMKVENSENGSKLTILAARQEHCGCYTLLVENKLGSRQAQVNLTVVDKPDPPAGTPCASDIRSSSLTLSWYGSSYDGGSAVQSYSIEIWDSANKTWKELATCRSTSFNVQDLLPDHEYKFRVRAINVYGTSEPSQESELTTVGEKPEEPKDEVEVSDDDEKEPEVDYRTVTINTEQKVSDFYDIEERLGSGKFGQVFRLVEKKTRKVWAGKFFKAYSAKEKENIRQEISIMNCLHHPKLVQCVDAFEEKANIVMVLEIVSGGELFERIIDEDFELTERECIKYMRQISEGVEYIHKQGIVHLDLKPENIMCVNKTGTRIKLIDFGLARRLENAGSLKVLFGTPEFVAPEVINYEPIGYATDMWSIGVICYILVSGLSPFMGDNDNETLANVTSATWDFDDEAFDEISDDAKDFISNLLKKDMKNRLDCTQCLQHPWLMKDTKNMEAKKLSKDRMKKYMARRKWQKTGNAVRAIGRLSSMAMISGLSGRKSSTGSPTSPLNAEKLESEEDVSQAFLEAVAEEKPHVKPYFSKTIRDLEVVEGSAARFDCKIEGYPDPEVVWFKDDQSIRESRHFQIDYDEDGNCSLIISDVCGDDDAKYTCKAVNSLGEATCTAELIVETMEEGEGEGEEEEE

[19] = molecular target: S6K1 (Homo sapiens, UniProt P23443); experiment: Kinase profiling S6K1; conditions: 100 micromolar inhibitor concentration; 100 is no change; read-out: residual kinase activity, S6K1
S6K1, sequence (P23443 whole entry, species assumed): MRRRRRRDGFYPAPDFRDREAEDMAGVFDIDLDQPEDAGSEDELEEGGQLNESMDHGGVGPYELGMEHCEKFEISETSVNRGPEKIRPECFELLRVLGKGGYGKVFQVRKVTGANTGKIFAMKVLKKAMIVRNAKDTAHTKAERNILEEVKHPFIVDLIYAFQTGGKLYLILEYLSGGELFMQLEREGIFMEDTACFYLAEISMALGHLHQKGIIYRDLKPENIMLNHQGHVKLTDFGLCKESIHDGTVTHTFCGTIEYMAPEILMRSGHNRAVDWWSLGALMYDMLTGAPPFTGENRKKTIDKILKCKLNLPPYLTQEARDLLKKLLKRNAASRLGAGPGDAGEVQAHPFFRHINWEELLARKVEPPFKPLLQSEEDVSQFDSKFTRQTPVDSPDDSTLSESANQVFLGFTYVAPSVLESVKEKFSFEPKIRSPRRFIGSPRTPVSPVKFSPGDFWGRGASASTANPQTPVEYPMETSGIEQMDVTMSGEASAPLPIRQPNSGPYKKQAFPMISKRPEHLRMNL
Excerpt: as §1

`CC(=O)Nc1nc2ccc(O)cc2s1` [Compound 01-71] showed a remaining activity at 100 µM [1] of 46%, a remaining activity at 100 µM [2] of 69% and a remaining activity at 100 µM [3] of 192%. For the same molecule, the remaining activity at 100 µM [4] was 18%, the remaining activity at 100 µM [5] was 74% and the remaining activity at 100 µM [6] was 65%. The remaining activity at 100 µM [7] was 57%, the remaining activity at 100 µM [8] was 36% and the remaining activity at 100 µM [9] was 43%. It also gave a remaining activity at 100 µM [10] of 48%, a remaining activity at 100 µM [11] of 78% and a remaining activity at 100 µM [12] of 33%. For the same molecule, the remaining activity at 100 µM [13] was 82%, the remaining activity at 100 µM [14] was 15% and the “residual kinase activity, VEG-FR” value [15] was 9. It also gave a remaining activity at 100 µM [16] of 66%, a remaining activity at 100 µM [17] of 14% and a remaining activity at 100 µM [18] of 39%. It also gave a remaining activity at 100 µM [19] of 23%.
`CC(=O)Nc1nc2ccc(C(F)(F)F)cc2s1` [Compound 01-90] gave a remaining activity at 100 µM [1] of 61%, a remaining activity at 100 µM [2] of 73% and a remaining activity at 100 µM [3] of 53%. For the same molecule, the remaining activity at 100 µM [4] was 84%, the remaining activity at 100 µM [5] was 81% and the remaining activity at 100 µM [6] was 100%. It also gave a remaining activity at 100 µM [7] of 100%, a remaining activity at 100 µM [8] of 94% and a remaining activity at 100 µM [9] of 76%. It also gave a remaining activity at 100 µM [10] of 73%, a remaining activity at 100 µM [11] of 85% and a remaining activity at 100 µM [12] of 69%. For the same molecule, the remaining activity at 100 µM [13] was 87%, the remaining activity at 100 µM [14] was 51% and the “residual kinase activity, VEG-FR” value [15] was 8. For the same molecule, the remaining activity at 100 µM [16] was 76%, the remaining activity at 100 µM [17] was 16% and the remaining activity at 100 µM [18] was 80%. The remaining activity at 100 µM [19] was 85%.
`CC(=O)Nc1nc2ccc(C#N)cc2s1` [Compound 01-94] was tested, and the remaining activity at 100 µM [1] was 50%, the remaining activity at 100 µM [2] was 98% and the remaining activity at 100 µM [3] was 168%. The remaining activity at 100 µM [4] was 78%, the remaining activity at 100 µM [5] was 80% and the remaining activity at 100 µM [6] was 97%. It also gave a remaining activity at 100 µM [7] of 98%, a remaining activity at 100 µM [8] of 70% and a remaining activity at 100 µM [9] of 69%. For the same molecule, the remaining activity at 100 µM [10] was 54%, the remaining activity at 100 µM [11] was 98% and the remaining activity at 100 µM [12] was 40%. The remaining activity at 100 µM [13] was 82%, the remaining activity at 100 µM [14] was 55% and the “residual kinase activity, VEG-FR” value [15] was 11. The remaining activity at 100 µM [16] was 53%, the remaining activity at 100 µM [17] was 23% and the remaining activity at 100 µM [18] was 54%. It also gave a remaining activity at 100 µM [19] of 73%.
